This is an account of results in US20020128321A1, “IL-8 receptor antagonists” (SmithKline Beecham Corporation, priority 1996, published 2002).

One data set has as its target T1, recombinant IL-8 Rb, or Type II, receptor (permissive receptor) (Homo sapiens, UniProt P25025).
T1 construct: expressed in transfected cells; host or cells: Chinese hamster ovary cells (membrane preparation)
T1 sequence (P25025 1-360): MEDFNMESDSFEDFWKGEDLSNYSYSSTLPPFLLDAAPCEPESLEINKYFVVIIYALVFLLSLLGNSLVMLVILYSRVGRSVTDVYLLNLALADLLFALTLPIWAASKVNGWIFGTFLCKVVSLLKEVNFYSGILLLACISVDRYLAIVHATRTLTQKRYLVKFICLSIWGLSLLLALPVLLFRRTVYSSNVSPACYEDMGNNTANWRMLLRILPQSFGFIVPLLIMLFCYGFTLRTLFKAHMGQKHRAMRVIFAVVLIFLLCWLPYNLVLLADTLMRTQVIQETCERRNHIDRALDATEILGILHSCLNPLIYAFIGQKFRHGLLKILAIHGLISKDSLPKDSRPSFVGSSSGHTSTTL
Description: Receptor binding assay, 125I IL-8, permissive (Type II) receptor. The note with it: concentration at which active. An excerpt:
[^125I] IL-8 (human recombinant) was obtained from Amersham Corp., Arlington Heights, Ill., with specific activity 2000 Ci/mmol. Gro-a was obtained from NEN-New England Nuclear. All other chemicals were of analytical grade. High levels of recombinant human IL-8 type a and b receptors were individually expressed in Chinese hamster ovary cells as described previously (Holmes, et al., Science, 1991, 253, 1278). The Chinese hamster ovary membranes were homogenized according to a previously described protocol (Haour, et al., J Biol Chem., 249 pp 2195-2205 (1974)). Except that the homogenization buffer was changed to 10 mM Tris-HCL, 1 mM MgS04, 0.5 mM EDTA (ethylene-diaminetetra-acetic acid), 1 m MPMSF (a-toluenesulphonyl fluoride), 0.5 mg/L Leupeptin, pH 7.5. Membrane protein concentration was determined using Pierce Co. micro-assay kit using bovine serum albumin as a standard. All assays were performed in a 96-well micro plate format. Each reaction mixture contained ^125I IL-8 (0.25 nM) or ^125I Gro-a and 0.5 μg/mL of IL-8Ra or 1.0 μg/mL of IL-8Rb membranes in 20 mM Bis-Trispropane and 0.4 mM Tris HCI buffers, pH 8.0, containing 1.2 mM MgSO4, 0.1 mM EDTA, 25 mM NaCl and 0.03% CHAPS. […] The filter was then dried and counted on the Betaplate liquid scintillation counter. […]
`Cc1cc(Cl)ccc1NC(=O)Nc1ccccc1C(=O)O` [1-(2-Carboxyphenyl)-3-(4-chloro-2-methylphenyl)urea]: the “found to be active at (IL-8 receptor inhibition)” value is recorded as “about 75 μg/mL”.

Test system in a further data set: not given
Assay: not given
Conditions: not given
In general, melting point refers to the temperature of the solid-liquid transition. Consider `NC(=O)c1ccc(NC(=O)Nc2ccccc2)c(O)c1` [Example 3, 3-hydroxy-4-{[(phenylamino)carbonyl]amino}benzamide], for which the melting point was in the range of 106.8 to 107.1 °C. Regarding `O=C(Nc1ccccc1-c1ccccc1)Nc1cccc(C(F)(F)F)c1O` [Example 204, N-(2-hydroxy-3-trifluoromethylphenyl)-N′-(2-phenylphenyl)urea], the melting point was 136.7 to 137.3 °C.

With `O=C(NCCO)Nc1ccc([N+](=O)[O-])cc1O` [Example 214, N-(2-Hydroxyethyl)-N′-(2-hydroxy-4-nitrophenyl)urea], the melting point fell in the range of 168.2 to 168.8 °C.

In turn, `O=C(Nc1ccc([N+](=O)[O-])cc1O)Nc1ccccc1NC(=O)c1ccccc1` [Example 236, N-[2-(Benzoylamino)phenyl]-N′-(2-hydroxy-4-nitrophenyl)urea] had a melting point of 188.7 to 189.3 °C. Molecule `COC(=O)Nc1ccccc1NC(=O)Nc1ccc([N+](=O)[O-])cc1O` [Example 223, N-[2-(Methoxycarbonylamino)phenyl]-N′-(2-hydroxy-4nitrophenyl)urea] displayed a melting point of 199.3 to 199.6 °C. On the same count and under the same terms, for `O=C(Nc1ccccc1Cl)Nc1cccc(C(F)(F)F)c1O` [Example 213, N-(2-hydroxy-3-trifluoromethylphenyl)-N′-(2-chlorophenyl)urea] the value was 179.3 °C; for `COC(=O)c1ccc(NC(=O)Nc2ccccc2)c(O)c1` [Example 1, N-[2-Hydroxy-4-(methoxycarbonyl)phenyl]-N′-phenyl urea], 188.4 to 188.8 °C. On the same count and under the same terms, as for `O=C(Nc1ccccc1)Nc1ccc(F)cc1O` [Example 4, N-(2-hydroxy-4-fluorophenyl)-N′-phenyl urea], the figure is 195.5 to 195.7 °C; as for `N#Cc1ccc(NC(=O)Nc2ccccc2NCc2ccccc2)c(O)c1` [Example 232, N-(2-Hydroxy-4-cyanophenyl)-N′-(2-benzylaminophenyl)urea], 108.8 to 109.4 °C. As for `NC(=O)N(c1ccc([N+](=O)[O-])cc1O)c1ccccc1OCc1ccccn1` [Example 233, N′-[2-(2-Pyridylmethoxy)phenyl]-N′-(2-Hydroxy-4-nitrophenyl)urea], the melting point was 193.5 to 194 °C.

Turning to `O=C(Nc1ccc([N+](=O)[O-])cc1O)Nc1ccccc1OCc1cccnc1` [Example 221, N-[2-(3-Pyridylmethoxy)phenyl]-N′-(2-hydroxy-4-nitrophenyl)urea], the melting point is 185.4 to 186.2 °C. The same measure, in the same setting: as for `O=C(Nc1ccc([N+](=O)[O-])cc1O)Nc1ccccc1Sc1ccccc1[N+](=O)[O-]`, the figure is 204.1 to 205.3 °C; as for `O=C(Nc1ccc([N+](=O)[O-])cc1O)Nc1ccccc1OCc1ccncc1` [Example 222, N-[2-(4-Pyridylmethoxy)phenyl]-N′-(2-hydroxy-4-nitrophenyl)urea], 189.3 to 189.7 °C; as for `O=C(Nc1cccc(C(F)(F)F)c1O)Nc1cccc(Cl)c1Cl` [Example 203, N-(2-hydroxy-3-trifluoromethylphenyl)-N′-(2,3-dichlorophenyl)urea], 204.3 to 205.2 °C. Same read-out and setting: for `O=C(Nc1ccc([N+](=O)[O-])cc1O)Nc1ccccc1NS(=O)(=O)c1cccs1` [Example 216, N-[2-(2-thienylsulfonylamino)phenyl]-N′-(2-hydroxy-4-nitrophenyl)urea] the value was 149 to 149.6 °C; for `COc1ccsc1NC(=O)Nc1cc([N+](=O)[O-])ccc1O` [Example 11, N-(2-hydroxy-5-nitrophenyl)-N′-(3-methoxy-2-thienyl)urea], 172.6 to 173 °C. Still for that read-out and setting: as for `O=C(Nc1ccccc1)Nc1ccccc1S` [Example 5, 2-{[(phenylamino)carbonyl]amino}thiophenol], the figure is 194.5 °C.
